Test results: ChEMBL document CHEMBL1201862, “PubChem BioAssay data set” (2004)
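48-hour exposure; five concentrations; linearly interpolated endpoints. Here, GI50 denotes the concentration required for 50% inhibition of growth.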 Active and inactive are the calls of the source. No stated cut-off is given here; in the data, active = GI50 up to about 1.1 µM and inactive = higher.

Key:
Assay in all cases: NCI tumour cell line growth inhibition, 48 h
[1] = tested on: 786-0
[2] = tested on: ACHN
[3] = tested on: CCRF-CEM
[4] = tested on: COLO 205
[5] = tested on: HL-60
[6] = tested on: HOP-62
[7] = tested on: IGROV-1
[8] = tested on: LOX IMVI
[9] = tested on: MDA-MB-231
[10] = tested on: NCI-H23
[11] = tested on: NCI-H522
[12] = tested on: PC-3
[13] = tested on: RXF 393
[14] = tested on: SF-295
[15] = tested on: SK-MEL-28
[16] = tested on: SK-MEL-2
[17] = tested on: SNB-75
[18] = tested on: T47D
[19] = tested on: TK-10
[20] = tested on: UACC-62

Measured: GI50

Cc1ccc(S(=O)(=O)N2CCSCCSCCSCCSCC2)cc1
inactive: [1] 21.1 µM | [2] > 58.3 µM | [3] 64.3 µM | [4] > 100 µM | [5] 99.8 µM | [6] > 40.6 µM | [7] 48.4 µM | [8] 59.6 µM | [9] 19.5 µM | [10] 40.1 µM | [11] 33.6 µM | [12] 55 µM | [13] > 27.9 µM | [14] 22.6 µM | [15] > 88.5 µM | [16] > 34.6 µM | [17] 11.9 µM | [18] 36.3 µM | [19] 44.6 µM | [20] 17.1 µM

COc1ccc(OC)c(C2Cc3cnc4nc(N)nc(N)c4c3C2)c1 (stereo not given)
inactive: [1] 24.2 µM | [2] 32.6 µM | [3] 24.4 µM | [4] 19.5 µM | [5] 20.4 µM | [6] 34.4 µM | [7] 15.8 µM | [8] 19.8 µM | [9] 23.7 µM | [10] 32.2 µM | [11] 24.1 µM | [12] 22.4 µM | [13] 19.9 µM | [14] 28.6 µM | [15] 33.7 µM | [16] 21.1 µM | [17] 17.4 µM | [18] 25 µM | [19] 26.2 µM | [20] 18.6 µM

CCOc1ccc(-n2c(=O)n3c(Nc4ccc(Cl)cc4)nc4c(c(=O)n(C)c(=O)n4C)n3c2=O)cc1
inactive: [1] 36.6 µM | [2] 43.4 µM | [3] 20.8 µM | [4] 21.6 µM | [5] 22 µM | [6] 71.1 µM | [7] 37.4 µM | [8] 20.4 µM | [9] 15.5 µM | [10] 27.5 µM | [11] 18.1 µM | [12] 47.6 µM | [13] 26.6 µM | [14] 31.6 µM | [15] 28.2 µM | [16] 26.4 µM | [17] 13.7 µM | [18] 39.2 µM | [19] 18.8 µM | [20] 18.1 µM

CCOc1ccccc1/N=N/C1C(=O)N(C(=O)CC(=O)Nc2ccccc2OC)N=C1C (stereo not given)
inactive: [1] 56.2 µM | [2] > 100 µM | [3] > 100 µM | [4] > 100 µM | [5] > 100 µM | [6] 18.7 µM | [7] 50.8 µM | [8] > 100 µM | [9] 30.3 µM | [10] 80 µM | [11] 42.9 µM | [12] > 100 µM | [13] 24.2 µM | [14] 20.9 µM | [15] > 100 µM | [16] 55.7 µM | [17] 16.3 µM | [18] 37 µM | [19] > 100 µM | [20] 25.7 µM

[O-][n+]1nc(N2CCOCC2)nc2ccccc21
inactive: [1] > 100 µM | [2] > 100 µM | [3] > 100 µM | [4] > 100 µM | [5] > 100 µM | [6] > 100 µM | [7] > 100 µM | [8] > 100 µM | [9] > 100 µM | [10] > 100 µM | [11] > 100 µM | [12] > 100 µM | [13] 49.5 µM | [14] > 100 µM | [15] > 100 µM | [16] > 100 µM | [17] > 100 µM | [18] > 100 µM | [19] 77.1 µM | [20] > 100 µM

COc1cc(C)c(/C=C2/N=C(c3ccccc3)OC2=O)c([N+](=O)[O-])c1OC
inactive: [1] > 100 µM | [2] > 100 µM | [3] 73.6 µM | [4] > 100 µM | [5] > 100 µM | [6] > 100 µM | [7] > 100 µM | [8] > 100 µM | [9] > 100 µM | [10] > 100 µM | [11] > 100 µM | [12] > 100 µM | [13] > 100 µM | [14] > 100 µM | [15] > 100 µM | [16] > 100 µM | [17] 89.1 µM | [18] > 100 µM | [19] > 100 µM | [20] > 100 µM

COc1ccc2c(c1)[C@@H]1c3cc(OC)c(OC)cc3CCN1CCC2
inactive: [1] > 100 µM | [2] > 100 µM | [3] 87.7 µM | [4] > 100 µM | [5] > 100 µM | [6] > 100 µM | [7] > 100 µM | [8] 98.4 µM | [9] > 100 µM | [10] > 100 µM | [11] > 100 µM | [12] 73.5 µM | [13] > 100 µM | [14] > 100 µM | [15] > 100 µM | [16] > 100 µM | [17] > 100 µM | [18] 31.6 µM | [19] > 100 µM | [20] > 100 µM

O=C(c1ccccc1)N1C(=O)N(c2ccccc2)C(=N/c2ccccc2)/C1=N\c1ccccc1
inactive: [1] > 100 µM | [2] 80.7 µM | [3] 50.7 µM | [4] 70.5 µM | [5] > 100 µM | [6] 52.4 µM | [7] > 100 µM | [8] 9.25 µM | [9] > 100 µM | [10] > 100 µM | [11] 11 µM | [12] > 100 µM | [13] 99.3 µM | [14] > 100 µM | [15] > 100 µM | [16] 29.9 µM | [17] > 100 µM | [18] > 100 µM | [19] > 100 µM | [20] 4.18 µM

O=c1[nH]nc(Nc2ccc(Cl)cc2)c2nnn(C3CCCCC3)c12
inactive: [1] 15.1 µM | [2] > 100 µM | [3] 26.7 µM | [4] 59.2 µM | [5] 86.3 µM | [6] 30.8 µM | [7] > 100 µM | [8] 16.4 µM | [9] 13.9 µM | [10] 45.3 µM | [11] 23.9 µM | [12] > 100 µM | [13] 30.4 µM | [14] > 100 µM | [15] > 100 µM | [16] > 100 µM | [17] 26.3 µM | [18] > 100 µM | [19] 53 µM | [20] > 100 µM

COc1cccc2cc(C(=O)O)c(=O)oc12
inactive: [1] > 100 µM | [2] > 100 µM | [3] > 100 µM | [4] > 100 µM | [5] > 100 µM | [6] > 100 µM | [7] > 100 µM | [8] > 100 µM | [9] > 100 µM | [10] > 100 µM | [11] > 100 µM | [12] > 100 µM | [13] > 100 µM | [14] > 100 µM | [15] > 100 µM | [16] > 100 µM | [17] > 100 µM | [18] > 100 µM | [19] > 100 µM | [20] 63.7 µM
